Data taken from patent US10597388B2, “Pyridazinone herbicides” (FMC CORPORATION, priority 2014, dated 2020).

What was measured:
Experiment in all cases: Test C greenhouse herbicide test, pre- and postemergence
Format in all cases: in vivo
[1] = system: barnyardgrass (Echinochloa crus-galli)
Outline: (§1)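 Seeds sown in loam–sand blend treated preemergence; plants in peat-based medium sprayed postemergence at 2–18 cm (1- to 4-leaf stage); chemicals in non-phytotoxic solvent with surfactant. Greenhouse 13–15 d, then visual rating versus controls on 0–100 scale (0 no effect, 100 complete control).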

[2] = system: blackgrass (Alopecurus myosuroides)
Outline: as §1

corn (Zea mays) = system: corn (Zea mays)
Outline: as §1

[3] = system: foxtail, giant (giant foxtail, Setaria faberii)
Outline: as §1

[4] = system: galium (catchweed bedstraw, Galium aparine)
Outline: as §1

[5] = system: johnsongrass (Sorghum halepense)
Outline: as §1

[6] = system: lambsquarters (Chenopodium album)
Outline: as §1

[7] = system: morningglory (Ipomoea coccinea)
Outline: as §1

[8] = system: nutsedge, yellow (yellow nutsedge, Cyperus esculentus)
Outline: as §1

[9] = system: pigweed (Amaranthus retroflexus)
Outline: as §1

[10] = system: ragweed (common ragweed, Ambrosia elatior)
Outline: as §1

[11] = system: ryegrass, Italian (Italian ryegrass, Lolium multiflorum)
Outline: as §1

soybean (Glycine max) = system: soybean (Glycine max)
Outline: as §1

[12] = system: velvetleaf (Abutilon theophrasti)
Outline: as §1

[13] = system: waterhemp (common waterhemp, Amaranthus rudis)
Outline: as §1

[14] = system: wheat (winter wheat, Triticum aestivum)
Outline: as §1

[15] = Postemergence, 31 g ai/ha, scale 0 to 100 (0 no effect, 100 complete control)
[16] = Postemergence, 125 g ai/ha, scale 0 to 100, 0 is no effect, 100 is complete control
[17] = Postemergence, 250 g ai/ha, scale 0 to 100, 0 no effect, 100 complete control, 13 to 15 d
[18] = Preemergence, 31 g ai/ha, scale 0 to 100, 0 is no effect, 100 is complete control
[19] = Preemergence, 62 g ai/ha, scale 0 to 100, 0 is no effect, 100 is complete control
[20] = Preemergence, 125 g ai/ha, scale 0 to 100, 0 is no effect, 100 is complete control
[21] = Preemergence, 250 g ai/ha, scale 0 to 100 (0 no effect, 100 complete control)
[22] = postemergence, 62 g ai/ha, scale 0 to 100, 0 no effect, 100 complete control

CCC(=O)Oc1c(C)nn(C)c(=O)c1-c1c(C)sc2ccc(Cl)cc12 [Compound 109]
50: Plant response rating, Blackgrass [2, 16] | Plant response rating, Corn (corn (Zea mays); [17])
15: Corn plant response rating (corn (Zea mays); [22]) | Wheat plant response rating [14, 21]
55: Plant response rating, Barnyardgrass [1, 16]
0: Plant response rating, Corn (corn (Zea mays); [15]) | Plant response rating, Corn (corn (Zea mays); [19]) | Plant response rating, Corn (corn (Zea mays); [20]) | Corn plant response rating (corn (Zea mays); [21]) | Plant response rating, Johnsongrass [5, 15] | Plant response rating, Johnsongrass [5, 18] | Plant response rating, Soybean (soybean (Glycine max); [15]) | Plant response rating, Soybean (soybean (Glycine max); [18]) | Plant response rating, Soybean (soybean (Glycine max); [19]) | Plant response rating, Soybean (soybean (Glycine max); [20]) | Soybean plant response rating (soybean (Glycine max); [21]) | Plant response rating, Wheat [14, 15] | Plant response rating, Wheat [14, 18]
80: Barnyardgrass plant response rating [1, 21] | Plant response rating, Blackgrass [2, 17] | Plant response rating, Foxtail, Giant [3, 16] | Plant response rating, Lambsquarters [6, 18] | Plant response rating, Nutsedge, Yellow [8, 16] | Plant response rating, Nutsedge, Yellow [8, 17] | Nutsedge, Yellow plant response rating [8, 21] | Plant response rating, Ragweed [10, 15] | Plant response rating, Velvetleaf [12, 20] | Plant response rating, Waterhemp [13, 15] | Plant response rating, Waterhemp [13, 18]
65: Plant response rating, Barnyardgrass [1, 17] | Plant response rating, Foxtail, Giant [3, 18] | Johnsongrass plant response rating [5, 21]
40: Plant response rating, Johnsongrass [5, 20] | Plant response rating, Nutsedge, Yellow [8, 18]
95: Plant response rating, Lambsquarters [6, 15] | Plant response rating, Morningglory [7, 15] | Plant response rating, Pigweed [9, 15] | Plant response rating, Ragweed [10, 18] | Plant response rating, Ragweed [10, 20] | Ryegrass, Italian plant response rating [11, 21]
35: Plant response rating, Barnyardgrass [1, 19] | Plant response rating, Blackgrass [2, 18] | Plant response rating, Corn (corn (Zea mays); [16]) | Plant response rating, Wheat [14, 17]
60: Plant response rating, Velvetleaf [12, 18]
5: Plant response rating, Corn (corn (Zea mays); [18]) | Plant response rating, Johnsongrass [5, 16] | Plant response rating, Johnsongrass [5, 17]
75: Plant response rating, Velvetleaf [12, 15] | Plant response rating, Velvetleaf [12, 19]
45: Plant response rating, Foxtail, Giant [3, 15] | Plant response rating, Nutsedge, Yellow [8, 15]
98: Plant response rating, Galium [4, 15] | Morningglory plant response rating [7, 21] | Plant response rating, Velvetleaf [12, 16]
70: Plant response rating, Barnyardgrass [1, 20] | Plant response rating, Nutsedge, Yellow [8, 19] | Plant response rating, Ryegrass, Italian [11, 18]
100: Plant response rating, Galium [4, 16] | Plant response rating, Galium [4, 17] | Plant response rating, Lambsquarters [6, 16] | Plant response rating, Lambsquarters [6, 17] | Lambsquarters plant response rating [6, 21] | Plant response rating, Morningglory [7, 16] | Plant response rating, Morningglory [7, 17] | Plant response rating, Pigweed [9, 16] | Plant response rating, Pigweed [9, 17] | Plant response rating, Pigweed [9, 18] | Plant response rating, Pigweed [9, 19] | Plant response rating, Pigweed [9, 20] | Pigweed plant response rating [9, 21] | Plant response rating, Ragweed [10, 16] | Plant response rating, Ragweed [10, 17] | Ragweed plant response rating [10, 21] | Plant response rating, Velvetleaf [12, 17] | Plant response rating, Waterhemp [13, 17] | Plant response rating, Waterhemp [13, 20] | Waterhemp plant response rating [13, 21]
20: Plant response rating, Blackgrass [2, 15]
90: Blackgrass plant response rating [2, 21] | Foxtail, Giant plant response rating [3, 21] | Plant response rating, Galium [4, 18] | Plant response rating, Galium [4, 19] | Plant response rating, Galium [4, 20] | Galium plant response rating [4, 21] | Plant response rating, Lambsquarters [6, 19] | Plant response rating, Lambsquarters [6, 20] | Plant response rating, Morningglory [7, 20] | Plant response rating, Nutsedge, Yellow [8, 20] | Plant response rating, Ragweed [10, 19] | Plant response rating, Ryegrass, Italian [11, 15] | Plant response rating, Ryegrass, Italian [11, 16] | Plant response rating, Ryegrass, Italian [11, 17] | Plant response rating, Ryegrass, Italian [11, 19] | Plant response rating, Ryegrass, Italian [11, 20] | Velvetleaf plant response rating [12, 21] | Plant response rating, Waterhemp [13, 16] | Plant response rating, Waterhemp [13, 19]
30: Barnyardgrass plant response rating [1, 22] | Plant response rating, Blackgrass [2, 19] | Plant response rating, Johnsongrass [5, 19] | Plant response rating, Soybean (soybean (Glycine max); [16])
25: Plant response rating, Barnyardgrass [1, 15] | Blackgrass plant response rating [2, 22] | Plant response rating, Soybean (soybean (Glycine max); [17])
85: Plant response rating, Blackgrass [2, 20] | Plant response rating, Foxtail, Giant [3, 17] | Plant response rating, Foxtail, Giant [3, 19] | Plant response rating, Foxtail, Giant [3, 20] | Plant response rating, Morningglory [7, 18] | Plant response rating, Morningglory [7, 19]
10: Plant response rating, Barnyardgrass [1, 18] | Plant response rating, Wheat [14, 16] | Plant response rating, Wheat [14, 19] | Plant response rating, Wheat [14, 20]
